Results: PubChem BioAssay AID200 (DTP/NCI, 2004)
“And” between values parts separate entries of the source, which are not always exact repeats. Identical values can stand only once. Toxic doses and inconclusive results are not listed. Where a SMILES comes first, the peptide text is derived from it.

Tested on: B6C3F1 mice, B16 melanoma ip, median survival T/C
Assay: NCI In Vivo Anticancer Drug Screen. Data for tumor model B16 Melanoma (intraperitoneal) in B6C3F1 mice
Conditions: endpoint: median survival time, higher = longer survival
How it was run: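 Readout: survival or tumor size in treated mice relative to vehicle controls (T/C). Model uses transplantable tumors grown in mice.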

[1] = dose: 25.0 mg/kg/injection, schedule: Q01DX009 (ip), vehicle: Klucel (hydroxypropylcellulose) (HPC)
[2] = dose: 50.0 mg/kg/injection, schedule: Q01DX009 (ip), vehicle: Klucel (hydroxypropylcellulose) (HPC)
[3] = dose: 100.0 mg/kg/injection, schedule: Q01DX009 (ip), vehicle: Klucel (hydroxypropylcellulose) (HPC)
[4] = dose: 200.0 mg/kg/injection, schedule: Q01DX009 (ip), vehicle: Klucel (hydroxypropylcellulose) (HPC)
[5] = dose: 12.5 mg/kg/injection, schedule: Q01DX009 (ip), vehicle: water
[6] = dose: 25.0 mg/kg/injection, schedule: Q01DX009 (ip), vehicle: water
[7] = dose: 100.0 mg/kg/injection, schedule: Q01DX009 (ip), vehicle: saline with Tween-80
[8] = dose: 200.0 mg/kg/injection, schedule: Q01DX009 (ip), vehicle: saline with Tween-80

SMILES: CC[C@@H](C)[C@@H]1NC(=O)C(NC(=O)C(CC(C)C)N(C)C(=O)C2CCCN2C(=O)C(C)O)C(C)OC(=O)C(Cc2ccc(OC)cc2)N(C)C(=O)C2CCCN2C(=O)C(CC(C)C)NC(=O)C(C)C(=O)C(C(C)C)OC(=O)C[C@H]1O (stereo partly specified)
- T/C (dose: 5.0 micrograms/kg/injection, schedule: Q01DX009 (ip), vehicle: distilled water + alcohol): 102 % of control
- T/C (dose: 10.0 micrograms/kg/injection, schedule: Q01DX009 (ip), vehicle: distilled water + alcohol): 111 % of control and 112 % of control
- T/C (dose: 10.0 micrograms/kg/injection, schedule: Q01DX009 (ip), vehicle: other): 120 % of control
- T/C (dose: 20.0 micrograms/kg/injection, schedule: Q01DX005 (ip), vehicle: other): 120 % of control
- T/C (dose: 20.0 micrograms/kg/injection, schedule: Q01DX005 (iv), vehicle: other): 105 % of control
- T/C (dose: 20.0 micrograms/kg/injection, schedule: Q01DX005 (sc), vehicle: other): 111 % of control
- T/C (dose: 20.0 micrograms/kg/injection, schedule: Q01DX009 (ip), vehicle: distilled water + alcohol): 117 % of control and 123 % of control
- T/C (dose: 40.0 micrograms/kg/injection, schedule: Q01DX005 (iv), vehicle: other): 101 % of control and 104 % of control
- T/C (dose: 40.0 micrograms/kg/injection, schedule: Q01DX005 (sc), vehicle: other): 108 % of control
- T/C (dose: 40.0 micrograms/kg/injection, schedule: Q01DX009 (ip), vehicle: distilled water + alcohol): 124 % of control
- T/C (dose: 40.0 micrograms/kg/injection, schedule: Q01DX009 (ip), vehicle: other): 153 % of control
- T/C (dose: 40.0 micrograms/kg/injection, schedule: Q03HX008 (ip), vehicle: saline): 124 % of control
- T/C (dose: 71.0 micrograms/kg/injection, schedule: Q01DX009 (ip), vehicle: other): 151 % of control
- T/C (dose: 80.0 micrograms/kg/injection, schedule: Q01DX005 (ip), vehicle: other): 122 % of control
- T/C (dose: 80.0 micrograms/kg/injection, schedule: Q01DX005 (iv), vehicle: other): 112 % of control and 96 % of control
- T/C (dose: 80.0 micrograms/kg/injection, schedule: Q01DX005 (oral), vehicle: other): 100 % of control
- T/C (dose: 80.0 micrograms/kg/injection, schedule: Q01DX005 (sc), vehicle: other): 113 % of control and 103 % of control
- T/C (dose: 80.0 micrograms/kg/injection, schedule: Q01DX009 (ip), vehicle: distilled water + alcohol): 153 % of control
- T/C (dose: 80.0 micrograms/kg/injection, schedule: Q01DX009 (ip), vehicle: other): 163 % of control
- T/C (dose: 106.0 micrograms/kg/injection, schedule: Q01DX009 (ip), vehicle: other): 159 % of control
- T/C (dose: 160.0 micrograms/kg/injection, schedule: Q01DX001 (iv), vehicle: other): 102 % of control
- T/C (dose: 160.0 micrograms/kg/injection, schedule: Q01DX001 (sc), vehicle: other): 106 % of control
- T/C (dose: 160.0 micrograms/kg/injection, schedule: Q01DX005 (iv), vehicle: other): 104 % of control and 106 % of control
- T/C (dose: 160.0 micrograms/kg/injection, schedule: Q01DX005 (oral), vehicle: other): 119 % of control and 105 % of control
- T/C (dose: 160.0 micrograms/kg/injection, schedule: Q01DX005 (sc), vehicle: other): 110 % of control and 122 % of control
- T/C (dose: 160.0 micrograms/kg/injection, schedule: Q01DX009 (ip), vehicle: distilled water + alcohol): 162 % of control and 164 % of control
- T/C (dose: 160.0 micrograms/kg/injection, schedule: Q01DX009 (ip), vehicle: other): 163 % of control
- T/C (dose: 160.0 micrograms/kg/injection, schedule: Q01DX009 (ip), vehicle: saline): 151 % of control
- T/C (dose: 320.0 micrograms/kg/injection, schedule: Q01DX001 (iv), vehicle: other): 99 % of control and 106 % of control
- T/C (dose: 320.0 micrograms/kg/injection, schedule: Q01DX001 (oral), vehicle: other): 99 % of control
- T/C (dose: 320.0 micrograms/kg/injection, schedule: Q01DX001 (sc), vehicle: other): 102 % of control
- T/C (dose: 320.0 micrograms/kg/injection, schedule: Q01DX005 (ip), vehicle: other): 123 % of control
- T/C (dose: 320.0 micrograms/kg/injection, schedule: Q01DX005 (iv), vehicle: other): 104 % of control and 106 % of control
- T/C (dose: 320.0 micrograms/kg/injection, schedule: Q01DX005 (oral), vehicle: other): 104 % of control and 105 % of control
- T/C (dose: 320.0 micrograms/kg/injection, schedule: Q01DX005 (sc), vehicle: other): 94 % of control and 105 % of control
- T/C (dose: 640.0 micrograms/kg/injection, schedule: Q01DX001 (ip), vehicle: other): 116 % of control
- T/C (dose: 640.0 micrograms/kg/injection, schedule: Q01DX001 (iv), vehicle: other): 102 % of control and 108 % of control
- T/C (dose: 640.0 micrograms/kg/injection, schedule: Q01DX001 (oral), vehicle: other): 99 % of control
- T/C (dose: 640.0 micrograms/kg/injection, schedule: Q01DX001 (sc), vehicle: other): 117 % of control and 102 % of control
- T/C (dose: 640.0 micrograms/kg/injection, schedule: Q01DX005 (oral), vehicle: other): 100 % of control and 107 % of control
- T/C (dose: 1280.0 micrograms/kg/injection, schedule: Q01DX001 (ip), vehicle: other): 124 % of control
- T/C (dose: 1280.0 micrograms/kg/injection, schedule: Q01DX001 (ip), vehicle: saline): 117 % of control
- T/C (dose: 1280.0 micrograms/kg/injection, schedule: Q01DX001 (iv), vehicle: other): 118 % of control and 106 % of control
- T/C (dose: 1280.0 micrograms/kg/injection, schedule: Q01DX001 (oral), vehicle: other): 103 % of control and 108 % of control
- T/C (dose: 1280.0 micrograms/kg/injection, schedule: Q01DX001 (sc), vehicle: other): 118 % of control and 100 % of control
- T/C (dose: 1280.0 micrograms/kg/injection, schedule: Q01DX005 (oral), vehicle: other): 97 % of control and 102 % of control
- T/C (dose: 2560.0 micrograms/kg/injection, schedule: Q01DX001 (oral), vehicle: other): 114 % of control and 100 % of control
- T/C (dose: 2560.0 micrograms/kg/injection, schedule: Q01DX001 (sc), vehicle: other): 112 % of control
- T/C (dose: 2560.0 micrograms/kg/injection, schedule: Q01DX005 (oral), vehicle: other): 99 % of control and 100 % of control
- T/C (dose: 5120.0 micrograms/kg/injection, schedule: Q01DX001 (oral), vehicle: other): 101 % of control and 105 % of control
- T/C (dose: 10240.0 micrograms/kg/injection, schedule: Q01DX001 (oral), vehicle: other): 105 % of control

SMILES: COC(=O)C(Cc1ccc(O)cc1)NC(=O)C(Cc1ccccc1)NC(C)=O (stereo not drawn) (Ac-Phe-Tyr-OMe; configuration not given here)
- T/C [1]: 92 % of control
- T/C [2]: 92 % of control
- T/C [3]: 92 % of control
- T/C [4]: 86 % of control

SMILES: CSc1ncc2ncn(C3OC(CO)C(O)C3O)c2n1 (stereo unspecified)
- T/C [1]: 101 % of control and 105 % of control
- T/C [2]: 95 % of control and 98 % of control
- T/C [3]: 103 % of control
- T/C [4]: 106 % of control
- T/C (dose: 400.0 mg/kg/injection, schedule: Q01DX009 (ip), vehicle: Klucel (hydroxypropylcellulose) (HPC)): 110 % of control and 89 % of control

SMILES: O=C1C2C3C=CC(C2C(=O)N1CO)C1C2C(=O)N(CO)C(=O)C2C31 (stereo unspecified)
- T/C (dose: 6.25 mg/kg/injection, schedule: Q01DX009 (ip), vehicle: water): 102 % of control
- T/C [5]: 109 % of control
- T/C [6]: 113 % of control

SMILES: O=C1CN(CCN2CC(=O)N(CN3CCOCC3)C(=O)C2)CC(=O)N1CN1CCOCC1
- T/C [5]: 107 % of control
- T/C [6]: 114 % of control and 118 % of control (2×)
- T/C (dose: 50.0 mg/kg/injection, schedule: Q01DX009 (ip), vehicle: water): 150 % of control and 154 % of control

SMILES: N#CCCCCCCCCCCC(=O)O
- T/C [7]: 93 % of control
- T/C [8]: 96 % of control
- T/C (dose: 400.0 mg/kg/injection, schedule: Q01DX009 (ip), vehicle: saline with Tween-80): 99 % of control

SMILES: Clc1ccccc1C(Nc1cnccn1)Nc1cnccn1
- T/C (dose: 25.0 mg/kg/injection, schedule: Q01DX009 (ip), vehicle: saline with Tween-80): 95 % of control and 101 % of control
- T/C (dose: 50.0 mg/kg/injection, schedule: Q01DX009 (ip), vehicle: saline with Tween-80): 98 % of control and 107 % of control
- T/C [7]: 118 % of control and 108 % of control
- T/C [8]: 116 % of control

SMILES: C[C@@](O)(/C=C/[C@H]1CC=CC(=O)O1)[C@@H](C[C@@H](O)\C=C/C=C\C=C\CO)OP(=O)(O)O
- T/C (dose: 3.12 mg/kg/injection, schedule: Q01DX009 (ip), vehicle: other): 98 % of control and 105 % of control
- T/C (dose: 6.25 mg/kg/injection, schedule: Q01DX009 (ip), vehicle: other): 110 % of control and 102 % of control
- T/C (dose: 12.5 mg/kg/injection, schedule: Q01DX009 (ip), vehicle: other): 101 % of control and 103 % of control
- T/C (dose: 25.0 mg/kg/injection, schedule: Q01DX009 (ip), vehicle: other): 99 % of control

SMILES: CCCCCCCC(=O)O[C@H]1[C@H]2[C@@H](CC1(C)C)C(=O)[C@]13O[C@H]1C(=O)[C@]1(CO1)[C@]23C
- T/C (dose: 0.31 mg/kg/injection, schedule: Q01DX009 (ip), vehicle: saline with Tween-80): 98 % of control
- T/C (dose: 0.62 mg/kg/injection, schedule: Q01DX009 (ip), vehicle: saline with Tween-80): 90 % of control
- T/C (dose: 1.25 mg/kg/injection, schedule: Q01DX009 (ip), vehicle: saline with Tween-80): 86 % of control and 98 % of control
- T/C (dose: 2.5 mg/kg/injection, schedule: Q01DX009 (ip), vehicle: saline with Tween-80): 88 % of control
